Results from patent US20170066717A1, “NEW PHENYLAZETIDINECARBOXYLATE OR -CARBOXAMIDE COMPOUNDS” (INVENTIVA, priority 2014, published 2017).
pEC50: −log10 of the molar value.

Legend:
[1] = target: T1, NURR-1/RXRγ (Homo sapiens, UniProt P48443); assay: Transactivation test, NURR-1-Gal4/RXRγ, luciferase reporter in Cos-7 cells; assay type: cell-based; conditions: for Emax: COS-7, induction level relative to reference XCT0135908 at 2×10^−5 M (=100%), read-out: hNurr1_RXRgFL Emax (%); for pEC50: Cos-7 cells, NURR-1-Gal4/RXRγ, luciferase reporter, read-out: hNurr1_RXRgFL EC50
T1 construct: expressed in transfected cells; host or cells: Cos-7 cells

[2] = Brain penetration in rats after intravenous administration; assay type: in vivo; conditions: rat; for Kp at 4 h: male, Wistar, intravenous, 4 mg/kg, ratio of Cmax brain to Cmax plasma after the 4 hours of infusion, rats, read-out: Kp (partition coefficient between the brain and the plasma); for Cmax at 4 h: male Wistar rats, 4 mg/kg iv infusion into the jugular vein for 4 hours, plasma at end of infusion
Summary of the method: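 Male Wistar rats (250-300 g, fed, n=4) received test compound by 4-hour jugular vein infusion at 4 mg/kg in 2% Cremophor EL/0.9% NaCl. At the end of infusion, plasma and brain homogenate were analysed by LC-MS/MS; Kp is the brain-to-plasma concentration ratio after 4 hours.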

T1 sequence (P48443 whole entry, the tested form may be a part): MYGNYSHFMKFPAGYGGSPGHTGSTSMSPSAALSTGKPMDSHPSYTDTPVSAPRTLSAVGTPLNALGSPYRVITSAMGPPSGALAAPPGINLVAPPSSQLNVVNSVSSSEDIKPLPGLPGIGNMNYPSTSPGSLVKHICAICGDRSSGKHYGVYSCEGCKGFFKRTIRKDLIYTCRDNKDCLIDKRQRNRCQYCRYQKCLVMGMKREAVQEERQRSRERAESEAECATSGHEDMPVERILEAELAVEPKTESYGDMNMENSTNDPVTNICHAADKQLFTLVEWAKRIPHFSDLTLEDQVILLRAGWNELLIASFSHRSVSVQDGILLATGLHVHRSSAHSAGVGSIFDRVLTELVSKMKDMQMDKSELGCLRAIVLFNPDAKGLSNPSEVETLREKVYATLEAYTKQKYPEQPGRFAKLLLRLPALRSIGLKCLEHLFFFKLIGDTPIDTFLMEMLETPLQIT
T1 sequence (P43354 whole entry partner, the tested form may be a part): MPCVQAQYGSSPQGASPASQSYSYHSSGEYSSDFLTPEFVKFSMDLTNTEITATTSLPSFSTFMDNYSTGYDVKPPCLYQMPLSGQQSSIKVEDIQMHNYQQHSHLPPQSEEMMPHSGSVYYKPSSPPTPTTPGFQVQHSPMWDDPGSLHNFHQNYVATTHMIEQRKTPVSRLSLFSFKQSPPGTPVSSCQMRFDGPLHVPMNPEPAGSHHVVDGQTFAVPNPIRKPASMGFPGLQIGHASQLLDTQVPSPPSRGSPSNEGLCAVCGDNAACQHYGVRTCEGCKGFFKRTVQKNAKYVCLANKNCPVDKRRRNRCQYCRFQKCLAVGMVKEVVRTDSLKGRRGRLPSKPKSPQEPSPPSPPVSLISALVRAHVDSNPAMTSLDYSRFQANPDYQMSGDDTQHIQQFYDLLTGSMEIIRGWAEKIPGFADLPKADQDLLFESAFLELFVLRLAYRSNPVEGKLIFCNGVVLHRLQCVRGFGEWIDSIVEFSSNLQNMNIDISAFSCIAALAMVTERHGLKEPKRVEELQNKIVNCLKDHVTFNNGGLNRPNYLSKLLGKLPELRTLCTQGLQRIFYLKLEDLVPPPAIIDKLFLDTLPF
T1 sequence (P04386 1-147 partner limits assumed): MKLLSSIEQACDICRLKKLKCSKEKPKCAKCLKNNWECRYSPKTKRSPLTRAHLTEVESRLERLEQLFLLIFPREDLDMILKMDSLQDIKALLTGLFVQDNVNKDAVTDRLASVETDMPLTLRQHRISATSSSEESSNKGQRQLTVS

Structure (SMILES) | Emax [1] [%] | pEC50 [1] | Kp at 4 h [2] | Cmax at 4 h [2] [ng/mL]
CC1(C)CCC(C)(C)c2cc(-c3cccc(N4CC(C(=O)O)C4)c3)ccc21 [Example 10, 1-[5-(1,1,4,4-tetrametyltetralin-6-yl)phenyl]azetidine-3-carboxylic acid] | 85 | 7.62 | 1.28 | 4300
CC(C)CC1CN(c2cccc(N3CC(C(=O)O)C3)c2)c2ccc(C(F)(F)F)cc2O1 (centres unmarked) [Example 118, 1-[3-[2-isobutyl-7-(trilfuoromethyl)-2,3-dihydro-1,4-benzoxazin-4-yl]phenyl]azetidine-3-carboxylic acid] | 80 | 7.33 | 0.35 | 3480
